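GI50 marks 50% less growth. The concentration for full growth arrest is given as TGI.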
Assays:
Assay in all cases: NCI anticancer screen, dose series, 384-well format
[1] = test system: SF-268 CNS
[2] = test system: SK-OV-3 ovarian
[3] = test system: SF-539 CNS
[4] = test system: RPMI-8226 leukemia
[5] = test system: 786-0 renal
[6] = test system: IGROV1 ovarian
[7] = test system: HS 578T breast
[8] = test system: CCRF-CEM leukemia
[9] = test system: SK-MEL-5 melanoma
[10] = test system: SK-MEL-28 melanoma
[11] = test system: SNB-75 CNS
[12] = test system: A498 renal
[13] = test system: OVCAR-4 ovarian
[14] = test system: HCT-15 colon
[15] = test system: MALME-3M melanoma
[16] = test system: T-47D breast
[17] = test system: HOP-62 NSCLC
[18] = test system: EKVX NSCLC
[19] = test system: KM12 colon
[20] = test system: SW-620 colon
[21] = test system: NCI-H322M lung
[22] = test system: MDA-MB-435 melanoma
[23] = test system: SR leukemia
[24] = test system: SN12C renal
[25] = test system: UACC-257 melanoma
[26] = test system: BT-549 breast
[27] = test system: NCI-H226 lung
[28] = test system: NCI/ADR-RES ovarian
[29] = test system: HOP-92 NSCLC
[30] = test system: PC-3 prostate
[31] = test system: NCI-H522 lung
[32] = test system: ACHN renal
[33] = test system: NCI-H460 NSCLC
[34] = test system: UACC-62 melanoma
[35] = test system: MOLT-4 leukemia
[36] = test system: HCC-2998 colon
[37] = test system: MCF7 breast
[38] = test system: SNB-19 CNS
[39] = test system: OVCAR-8 ovarian
[40] = test system: TK-10 renal
[41] = test system: DU-145 prostate
[42] = test system: HL-60(TB) leukemia
[43] = test system: RXF 393 renal
[44] = test system: SF-295 CNS
[45] = test system: LOX IMVI melanoma
[46] = test system: M14 melanoma
[47] = test system: HT29 colon
[48] = test system: UO-31 renal
[49] = test system: OVCAR-3 ovarian
[50] = test system: CAKI-1 renal
[51] = test system: MDA-MB-231 breast
[52] = test system: U251 glioblastoma
[53] = test system: A549 NSCLC
[54] = test system: NCI-H23 lung
[55] = test system: HCT-116 colon
[56] = test system: OVCAR-5 ovarian
[57] = test system: COLO 205 colon
[58] = test system: MDA-MB-468 breast

Question: `Cc1cnc(Nc2ccc(OCCN3CCCC3)cc2)nc1Nc1cccc(S(=O)(=O)NC(C)(C)C)c1` was tested. Which GI50 [1] did it give?
Answer: 1900 nM

Question: And the TGI [1]?
Answer: 4220 nM

Question: And the GI50 [2]?
Answer: 604 nM

Question: And the TGI [2]?
Answer: 1840 nM

Question: What about the GI50 [3] of the same molecule?
Answer: 1510 nM

Question: What about the TGI [3] of the same molecule?
Answer: 2860 nM

Question: And the GI50 [4]?
Answer: 624 nM

Question: And the TGI [4]?
Answer: 1780 nM

Question: What about the GI50 [5] of the same molecule?
Answer: 1270 nM

Question: And the TGI [5]?
Answer: 2550 nM

Question: And the GI50 [6]?
Answer: 1080 nM

Question: What about the TGI [6] of the same molecule?
Answer: 2650 nM

Question: What about the GI50 [7] of the same molecule?
Answer: 837 nM

Question: What about the TGI [7] of the same molecule?
Answer: 2270 nM

Question: What about the GI50 [8] of the same molecule?
Answer: 1400 nM

Question: And the TGI [8]?
Answer: 2750 nM

Question: What about the GI50 [9] of the same molecule?
Answer: 1320 nM

Question: And the TGI [9]?
Answer: 2630 nM

Question: And the GI50 [10]?
Answer: 3610 nM

Question: And the TGI [10]?
Answer: 11600 nM

Question: What about the GI50 [11] of the same molecule?
Answer: 869 nM

Question: What about the TGI [11] of the same molecule?
Answer: 2160 nM

Question: And the GI50 [12]?
Answer: 909 nM

Question: What about the TGI [12] of the same molecule?
Answer: 3090 nM

Question: And the GI50 [13]?
Answer: 1600 nM

Question: And the TGI [13]?
Answer: 3650 nM

Question: And the GI50 [14]?
Answer: 1660 nM

Question: And the TGI [14]?
Answer: 4310 nM

Question: What about the GI50 [15] of the same molecule?
Answer: 1450 nM

Question: And the TGI [15]?
Answer: 3040 nM

Question: And the GI50 [16]?
Answer: 1780 nM

Question: And the TGI [16]?
Answer: 5210 nM

Question: And the GI50 [17]?
Answer: 2000 nM

Question: And the TGI [17]?
Answer: 4870 nM

Question: And the GI50 [18]?
Answer: 1770 nM

Question: And the TGI [18]?
Answer: 3980 nM

Question: What about the GI50 [19] of the same molecule?
Answer: 418 nM

Question: What about the TGI [19] of the same molecule?
Answer: 5550 nM

Question: And the GI50 [20]?
Answer: 1570 nM

Question: And the TGI [20]?
Answer: 3640 nM

Question: What about the GI50 [21] of the same molecule?
Answer: 1240 nM

Question: What about the TGI [21] of the same molecule?
Answer: 7230 nM

Question: What about the GI50 [22] of the same molecule?
Answer: 2610 nM

Question: What about the TGI [22] of the same molecule?
Answer: 11600 nM

Question: And the GI50 [23]?
Answer: 372 nM

Question: What about the TGI [23] of the same molecule?
Answer: 1360 nM

Question: What about the GI50 [24] of the same molecule?
Answer: 1540 nM

Question: What about the TGI [24] of the same molecule?
Answer: 4490 nM

Question: What about the GI50 [25] of the same molecule?
Answer: 1730 nM

Question: What about the TGI [25] of the same molecule?
Answer: 3120 nM

Question: And the GI50 [26]?
Answer: 1620 nM

Question: What about the TGI [26] of the same molecule?
Answer: 3010 nM

Question: And the GI50 [27]?
Answer: 740 nM

Question: What about the TGI [27] of the same molecule?
Answer: 1940 nM

Question: What about the GI50 [28] of the same molecule?
Answer: 6430 nM

Question: And the TGI [28]?
Answer: 18300 nM

Question: What about the GI50 [29] of the same molecule?
Answer: 1020 nM

Question: And the TGI [29]?
Answer: 2220 nM

Question: And the GI50 [30]?
Answer: 1440 nM

Question: What about the TGI [30] of the same molecule?
Answer: 8680 nM

Question: And the GI50 [31]?
Answer: 523 nM

Question: What about the TGI [31] of the same molecule?
Answer: 1680 nM

Question: And the GI50 [32]?
Answer: 1300 nM

Question: And the TGI [32]?
Answer: 2850 nM

Question: What about the GI50 [33] of the same molecule?
Answer: 1880 nM

Question: And the TGI [33]?
Answer: 11700 nM

Question: And the GI50 [34]?
Answer: 1000 nM

Question: And the TGI [34]?
Answer: 2670 nM

Question: And the GI50 [35]?
Answer: 428 nM

Question: What about the TGI [35] of the same molecule?
Answer: 1480 nM

Question: What about the GI50 [36] of the same molecule?
Answer: 1390 nM

Question: What about the TGI [36] of the same molecule?
Answer: 2860 nM

Question: And the GI50 [37]?
Answer: 1160 nM

Question: And the TGI [37]?
Answer: 2680 nM

Question: And the GI50 [38]?
Answer: 2970 nM

Question: What about the TGI [38] of the same molecule?
Answer: 8890 nM

Question: What about the GI50 [39] of the same molecule?
Answer: 1540 nM

Question: And the TGI [39]?
Answer: 2920 nM

Question: What about the GI50 [40] of the same molecule?
Answer: 1550 nM

Question: What about the TGI [40] of the same molecule?
Answer: 3190 nM

Question: What about the GI50 [41] of the same molecule?
Answer: 1080 nM

Question: What about the TGI [41] of the same molecule?
Answer: 2870 nM

Question: What about the GI50 [42] of the same molecule?
Answer: 464 nM

Question: What about the TGI [42] of the same molecule?
Answer: 1340 nM

Question: What about the GI50 [43] of the same molecule?
Answer: 707 nM

Question: What about the TGI [43] of the same molecule?
Answer: 1660 nM

Question: What about the GI50 [44] of the same molecule?
Answer: 2740 nM

Question: And the TGI [44]?
Answer: 8670 nM

Question: And the GI50 [45]?
Answer: 815 nM

Question: What about the TGI [45] of the same molecule?
Answer: 2050 nM

Question: And the GI50 [46]?
Answer: 1020 nM

Question: And the TGI [46]?
Answer: 2500 nM

Question: And the GI50 [47]?
Answer: 1420 nM

Question: What about the TGI [47] of the same molecule?
Answer: 2790 nM

Question: What about the GI50 [48] of the same molecule?
Answer: 1770 nM

Question: What about the TGI [48] of the same molecule?
Answer: 3170 nM

Question: What about the GI50 [49] of the same molecule?
Answer: 1270 nM

Question: And the TGI [49]?
Answer: 4510 nM

Question: And the GI50 [50]?
Answer: 593 nM

Question: And the TGI [50]?
Answer: 1710 nM

Question: What about the GI50 [51] of the same molecule?
Answer: 1060 nM

Question: And the TGI [51]?
Answer: 2350 nM

Question: And the GI50 [52]?
Answer: 2570 nM

Question: What about the TGI [52] of the same molecule?
Answer: 12400 nM

Question: What about the GI50 [53] of the same molecule?
Answer: 1370 nM

Question: What about the TGI [53] of the same molecule?
Answer: 2730 nM

Question: And the GI50 [54]?
Answer: 1450 nM

Question: What about the TGI [54] of the same molecule?
Answer: 3350 nM

Question: What about the GI50 [55] of the same molecule?
Answer: 635 nM

Question: What about the TGI [55] of the same molecule?
Answer: 2070 nM

Question: What about the GI50 [56] of the same molecule?
Answer: 1670 nM

Question: What about the TGI [56] of the same molecule?
Answer: 5630 nM

Question: And the GI50 [57]?
Answer: 1820 nM

Question: And the TGI [57]?
Answer: 3280 nM

Question: What about the GI50 [58] of the same molecule?
Answer: 1200 nM

Question: And the TGI [58]?
Answer: 2640 nM

Reference: PubChem BioAssay (NCI)
